From patent publication US20250304596A1, “PYRAZINE DERIVATIVES AND USES THEREOF” (FOGHORN THERAPEUTICS INC., priority 2022, published 2025)

How the values were obtained:
HiBit-BRM fusion protein = target: T1, HiBit-BRM fusion protein (Homo sapiens, UniProt P51531); assay: HiBiT-BRM cell-based degradation assay (Nano-Glo HiBiT Lytic Detection, 24 h); conditions: stable HeLa cell line expressing HiBiT-BRM; for DC50: read-out: BRM HiBit Degradation IC50
T1 construct: expressed in transfected cells
Experimental: (§1) Procedure: A stable HeLa cell line expressing HiBiT-BRM was generated. On day 0, 5000 cells were seeded in 40 μL of media into each well of 384-well cell culture plates. On day 1, cells were treated with 120 nL DMSO or 120 nL of 3-fold serially DMSO-diluted compounds (10 points in duplicate with 30 μM as final top dose). Subsequently plates were incubated for 24 h in a standard tissue culture incubator and equilibrated at room temperature for 15 minutes. Nano-Glo HiBiT Lytic Detection System (Promega N3050) reagent was freshly prepared and 20 ul was added to each well. Upon addition of this LgBit-containing reagent, the HiBiT and LgBiT proteins associate to form the luminescent NanoBiT Iuciferase. The plates were shaken for 10 minutes at room temperature and the bioluminescence read using an EnVision plate reader (PerkinElmer).
(§2) The degradation % was calculated using the following formula: % degradation=100%-100%×(LumSample−LumLC)/(LumHC−LumLC). DMSO treated cells are employed as High Control (HC) and 2 μM of a known BRM/BRG1 degrader standard treated cells are employed as Low Control (LC).

[1] = target: T2, HiBit-BRG1 fusion protein (Homo sapiens, UniProt P51532); assay: HiBiT-BRG1 cell-based degradation assay (Nano-Glo HiBiT Lytic Detection, 24 h); conditions: stable HeLa cell line expressing HiBit-BRG1 and LgBit; for Dmax: read-out: BRG1 HiBit Degradation Maximum (%); for DC50: read-out: BRMG1 HiBit Degradation IC50
T2 construct: expressed in transfected cells
Experimental: as §1
For measurement of BRG1 degradation, a stable HeLa cell line expressing HiBit-BRG1 and LgBit was generated. The same protocol as above was then followed.
as §2

T2 sequence (P51532 whole entry, the tested form may be a part): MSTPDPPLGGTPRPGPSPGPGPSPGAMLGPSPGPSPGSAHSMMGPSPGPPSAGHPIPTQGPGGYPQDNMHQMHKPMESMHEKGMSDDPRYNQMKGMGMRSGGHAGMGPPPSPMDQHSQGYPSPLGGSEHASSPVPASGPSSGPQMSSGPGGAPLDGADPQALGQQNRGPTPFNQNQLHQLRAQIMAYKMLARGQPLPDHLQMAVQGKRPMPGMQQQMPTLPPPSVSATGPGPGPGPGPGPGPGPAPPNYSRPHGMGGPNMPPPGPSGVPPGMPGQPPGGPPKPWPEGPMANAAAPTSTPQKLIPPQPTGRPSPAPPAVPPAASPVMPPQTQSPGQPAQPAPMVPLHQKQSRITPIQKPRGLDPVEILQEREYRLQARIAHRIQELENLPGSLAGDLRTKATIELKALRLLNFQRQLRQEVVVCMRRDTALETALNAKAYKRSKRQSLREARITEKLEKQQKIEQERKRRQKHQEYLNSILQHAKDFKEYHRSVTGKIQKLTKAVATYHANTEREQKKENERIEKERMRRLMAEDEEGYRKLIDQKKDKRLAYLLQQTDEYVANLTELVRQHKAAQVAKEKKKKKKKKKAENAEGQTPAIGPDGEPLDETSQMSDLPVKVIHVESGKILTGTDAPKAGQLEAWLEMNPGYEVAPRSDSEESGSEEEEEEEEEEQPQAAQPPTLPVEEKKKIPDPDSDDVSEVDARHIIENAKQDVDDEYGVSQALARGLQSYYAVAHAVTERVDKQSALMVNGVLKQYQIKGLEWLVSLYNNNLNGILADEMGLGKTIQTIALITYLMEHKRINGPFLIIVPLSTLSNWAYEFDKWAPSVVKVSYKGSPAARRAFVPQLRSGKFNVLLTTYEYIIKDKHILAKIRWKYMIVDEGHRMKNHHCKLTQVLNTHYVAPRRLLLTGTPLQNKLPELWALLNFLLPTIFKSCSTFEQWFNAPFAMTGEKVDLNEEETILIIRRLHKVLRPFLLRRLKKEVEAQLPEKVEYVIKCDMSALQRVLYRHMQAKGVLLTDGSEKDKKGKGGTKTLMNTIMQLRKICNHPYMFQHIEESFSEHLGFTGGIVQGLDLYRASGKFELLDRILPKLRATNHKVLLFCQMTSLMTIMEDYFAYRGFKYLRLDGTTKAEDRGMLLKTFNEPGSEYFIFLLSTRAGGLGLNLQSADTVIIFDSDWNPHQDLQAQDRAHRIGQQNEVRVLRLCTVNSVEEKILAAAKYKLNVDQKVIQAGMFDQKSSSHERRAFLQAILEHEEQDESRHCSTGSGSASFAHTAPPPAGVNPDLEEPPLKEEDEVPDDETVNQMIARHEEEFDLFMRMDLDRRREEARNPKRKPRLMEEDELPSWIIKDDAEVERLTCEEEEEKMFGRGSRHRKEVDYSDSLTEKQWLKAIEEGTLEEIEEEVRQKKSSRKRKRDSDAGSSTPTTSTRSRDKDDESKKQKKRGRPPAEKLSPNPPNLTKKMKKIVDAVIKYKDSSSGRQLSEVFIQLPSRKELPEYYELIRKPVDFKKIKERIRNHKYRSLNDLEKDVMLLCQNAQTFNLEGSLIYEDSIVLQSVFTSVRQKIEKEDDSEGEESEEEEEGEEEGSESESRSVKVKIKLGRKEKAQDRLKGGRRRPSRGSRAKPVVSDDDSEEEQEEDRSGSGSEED
T1 sequence (P51531 whole entry, the tested form may be a part): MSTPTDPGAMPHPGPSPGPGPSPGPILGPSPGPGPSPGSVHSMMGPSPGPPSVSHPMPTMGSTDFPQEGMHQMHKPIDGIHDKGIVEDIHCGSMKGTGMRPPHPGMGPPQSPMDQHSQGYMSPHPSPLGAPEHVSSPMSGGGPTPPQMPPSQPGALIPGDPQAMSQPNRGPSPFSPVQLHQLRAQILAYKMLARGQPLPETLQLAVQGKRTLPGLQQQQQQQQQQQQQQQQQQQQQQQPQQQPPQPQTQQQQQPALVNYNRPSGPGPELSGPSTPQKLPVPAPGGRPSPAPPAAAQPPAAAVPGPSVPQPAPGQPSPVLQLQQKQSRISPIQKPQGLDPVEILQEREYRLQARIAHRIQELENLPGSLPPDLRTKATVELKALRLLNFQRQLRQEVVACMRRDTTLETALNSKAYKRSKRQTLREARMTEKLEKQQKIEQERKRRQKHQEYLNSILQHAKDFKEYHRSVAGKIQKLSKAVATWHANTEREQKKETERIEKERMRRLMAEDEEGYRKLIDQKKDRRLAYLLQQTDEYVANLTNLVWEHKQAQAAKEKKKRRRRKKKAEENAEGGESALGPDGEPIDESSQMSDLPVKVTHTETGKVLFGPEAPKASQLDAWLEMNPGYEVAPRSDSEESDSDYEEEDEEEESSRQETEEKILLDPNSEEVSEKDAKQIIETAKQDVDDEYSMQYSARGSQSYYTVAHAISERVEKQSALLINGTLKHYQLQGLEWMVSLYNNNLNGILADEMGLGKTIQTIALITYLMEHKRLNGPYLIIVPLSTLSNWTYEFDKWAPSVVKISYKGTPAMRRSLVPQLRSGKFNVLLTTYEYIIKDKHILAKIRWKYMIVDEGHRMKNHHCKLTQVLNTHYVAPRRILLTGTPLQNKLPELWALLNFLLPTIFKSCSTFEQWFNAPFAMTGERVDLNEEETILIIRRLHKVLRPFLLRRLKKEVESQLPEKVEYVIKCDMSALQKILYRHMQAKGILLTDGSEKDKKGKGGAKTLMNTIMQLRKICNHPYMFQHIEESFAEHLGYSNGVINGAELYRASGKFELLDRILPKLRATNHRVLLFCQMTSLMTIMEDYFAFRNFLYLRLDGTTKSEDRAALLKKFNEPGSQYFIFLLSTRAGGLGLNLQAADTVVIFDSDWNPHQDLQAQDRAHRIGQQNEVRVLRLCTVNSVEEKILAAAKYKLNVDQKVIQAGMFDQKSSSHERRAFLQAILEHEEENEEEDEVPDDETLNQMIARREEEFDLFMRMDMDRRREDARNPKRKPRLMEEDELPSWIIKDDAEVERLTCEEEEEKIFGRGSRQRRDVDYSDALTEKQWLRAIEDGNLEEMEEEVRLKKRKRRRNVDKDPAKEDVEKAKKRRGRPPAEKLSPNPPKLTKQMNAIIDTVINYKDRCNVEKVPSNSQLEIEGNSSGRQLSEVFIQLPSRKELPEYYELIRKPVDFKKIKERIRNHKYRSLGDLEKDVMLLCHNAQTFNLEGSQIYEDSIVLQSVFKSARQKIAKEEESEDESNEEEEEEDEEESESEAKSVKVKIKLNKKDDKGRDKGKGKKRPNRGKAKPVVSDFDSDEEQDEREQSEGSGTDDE

Row | Compound | BRM HiBit Degradation Maximum (%) (HiBit-BRM fusion protein) | DC50 (HiBit-BRM fusion protein) | Dmax [1] | DC50 [1]
1 | Cc1ncsc1-c1ccc([C@H](C)NC(=O)[C@@H]2C[C@@H](O)CN2C(=O)[C@@H](c2cc(-c3cnc(N4CCC(c5cc6cc(-c7ccccc7O)nnc6s5)CC4)nc3)no2)C(C)C)cc1 [Compound 54, (2S,4R)-4-hydroxy-1-((R)-2-(3-(2-(4-(3-(2-hydroxyphenyl)thieno[2,3-c]pyridazin-6-yl)piperidin-1-yl)pyrimidin-5-yl)isoxazol-5-yl)-3-methylbutanoyl)-N-((S)-1-(4-(4-methylthiazol-5-yl)phenyl)ethyl)pyrrolidine-2-carboxamide] | A (“A” indicates maximum degradation ≥75%) | < 10 nM | < 50% | > 1000 nM
2 | Cc1cc(-c2cc([C@H](C(=O)N3C[C@H](O)C[C@H]3C(=O)N[C@@H](C)c3ccc(-c4scnc4C)cc3)C(C)C)on2)cnc1N1CC[C@@H](c2sc3nnc(-c4ccccc4O)cc3c2C)C1 [Compound 101, (2S,4R)-4-hydroxy-1-((R)-2-(3-(6-((R)-3-(3-(2-hydroxyphenyl)-5-methylthieno[2,3-c]pyridazin-6-yl)pyrrolidin-1-yl)-5-methylpyridin-3-yl)isoxazol-5-yl)-3-methylbutanoyl)-N-((S)-1-(4-(4-methylthiazol-5-yl)phenyl)ethyl)pyrrolidine-2-carboxamide] | A (“A” indicates maximum degradation ≥75%) | > 10 nM | < 50% | –
3 | Cc1cc(N2CCC(c3sc4nnc(-c5ccccc5O)cc4c3C)CC2)ncc1-c1cc([C@H](C(=O)N2C[C@H](O)C[C@H]2C(=O)N[C@@H](C)c2ccc(-c3scnc3C)cc2)C(C)C)on1 [Compound 38, (2S,4R)-4-hydroxy-1-((R)-2-(3-(6-(4-(3-(2-hydroxyphenyl)-5-methylthieno[2,3-c]pyridazin-6-yl)piperidin-1-yl)-4-methylpyridin-3-yl)isoxazol-5-yl)-3-methylbutanoyl)-N-((S)-1-(4-(4-methylthiazol-5-yl)phenyl)ethyl)pyrrolidine-2-carboxamide] | A (“A” indicates maximum degradation ≥75%) | < 10 nM | < 50% | > 1000 nM
4 | COc1nc(N2CCC(c3sc4nnc(-c5ccccc5O)cc4c3C)CC2)ccc1-c1cc([C@H](C(=O)N2C[C@H](O)C[C@H]2C(=O)N[C@@H](C)c2ccc(-c3scnc3C)cc2)C(C)C)on1 [Compound 20, (2S,4R)-4-hydroxy-1-((R)-2-(3-(6-(4-(3-(2-hydroxyphenyl)-5-methylthieno[2,3-c]pyridazin-6-yl)piperidin-1-yl)-2-methoxypyridin-3-yl)isoxazol-5-yl)-3-methylbutanoyl)-N-((S)-1-(4-(4-methylthiazol-5-yl)phenyl)ethyl)pyrrolidine-2-carboxamide] | A (“A” indicates maximum degradation ≥75%) | > 10 nM | < 50% | > 1000 nM
5 | Cc1ncsc1-c1ccc([C@H](C)NC(=O)[C@@H]2C[C@@H](O)CN2C(=O)[C@@H](c2cc(N3CC4(CC(c5cc6nnc(-c7ccccc7O)cc6s5)C4)C3)no2)C(C)C)cc1 [Compound 69, (2S,4R)-4-hydroxy-1-((R)-2-(3-(6-(3-(2-hydroxyphenyl)thieno[3,2-c]pyridazin-6-yl)-2-azaspiro[3.3]heptan-2-yl)isoxazol-5-yl)-3-methylbutanoyl)-N-((S)-1-(4-(4-methylthiazol-5-yl)phenyl)ethyl)pyrrolidine-2-carboxamide] | A (“A” indicates maximum degradation ≥75%) | < 10 nM | > 75% | < 10 nM
6 | Cc1ncsc1-c1ccc([C@H](C)NC(=O)[C@@H]2C[C@@H](O)CN2C(=O)[C@@H](c2cc(-c3ccc(N4CCC(c5sc6nnc(-c7ccccc7O)cc6c5C)CC4)nc3)no2)C(C)C)cc1 [Compound 59, (2S,4R)-4-hydroxy-1-((R)-2-(3-(6-(4-(3-(2-hydroxyphenyl)-5-methylthieno[2,3-c]pyridazin-6-yl)piperidin-1-yl)pyridin-3-yl)isoxazol-5-yl)-3-methylbutanoyl)-N-((S)-1-(4-(4-methylthiazol-5-yl)phenyl)ethyl)pyrrolidine-2-carboxamide] | A (“A” indicates maximum degradation ≥75%) | < 10 nM | < 50% | > 1000 nM
7 | Cc1nc(N2CCC(c3sc4nnc(-c5ccccc5O)cc4c3C)CC2)ccc1-c1noc(C(C(=O)N2C[C@H](O)C[C@H]2C(=O)N[C@@H](C)c2ccc(-c3scnc3C)cc2)C(C)C)c1Cl (stereo in doubt) [Compound 21, (2S,4R)-1-((S)-2-(4-chloro-3-(6-(4-(3-(2-hydroxyphenyl)-5-methylthieno[2,3-c]pyridazin-6-yl)piperidin-1-yl)-2-methylpyridin-3-yl)isoxazol-5-yl)-3-methylbutanoyl)-4-hydroxy-N-((S)-1-(4-(4-methylthiazol-5-yl)phenyl)ethyl)pyrrolidine-2-carboxamide] | A (“A” indicates maximum degradation ≥75%) | > 10 nM | > 50% | > 100 nM
8 | Cc1ncsc1-c1ccc([C@H](C)NC(=O)[C@@H]2C[C@@H](O)CN2C(=O)[C@@H](c2cc(-c3cnc(N4CC[C@H](c5cc6nnc(-c7ccccc7O)cc6s5)C4)nc3)no2)C(C)C)cc1 [Compound 91, (2S,4R)-4-hydroxy-1-((R)-2-(3-(2-((S)-3-(3-(2-hydroxyphenyl)thieno[3,2-c]pyridazin-6-yl)pyrrolidin-1-yl)pyrimidin-5-yl)isoxazol-5-yl)-3-methylbutanoyl)-N-((S)-1-(4-(4-methylthiazol-5-yl)phenyl)ethyl)pyrrolidine-2-carboxamide] | A (“A” indicates maximum degradation ≥75%) | < 10 nM | > 50% | –
9 | Cc1ncsc1-c1ccc([C@H](C)NC(=O)[C@@H]2C[C@@H](O)CN2C(=O)[C@@H](c2cc(N3CC4(CC(c5sc6nnc(-c7ccccc7O)cc6c5C)C4)C3)no2)C(C)C)cc1 [Compound 23, (2S,4R)-4-hydroxy-1-((R)-2-(3-(6-(3-(2-hydroxyphenyl)-5-methylthieno[2,3-c]pyridazin-6-yl)-2-azaspiro[3.3]heptan-2-yl)isoxazol-5-yl)-3-methylbutanoyl)-N-((S)-1-(4-(4-methylthiazol-5-yl)phenyl)ethyl)pyrrolidine-2-carboxamide] | A (“A” indicates maximum degradation ≥75%) | < 10 nM | < 50% | > 1000 nM
10 | Cc1ncsc1-c1ccc([C@H](C)NC(=O)[C@@H]2C[C@@H](O)CN2C(=O)[C@@H](c2cc(N3CCN(c4ncc(-c5sc6nnc(-c7ccccc7O)cc6c5C)cn4)CC3)no2)C(C)C)cc1 (single isomer, unassigned) [Compound 31] | B (“B” indicates maximum degradation ≥50%) | > 10 nM | < 50% | > 1000 nM
11 | Cc1cc(-c2cc([C@H](C(=O)N3C[C@H](O)C[C@H]3C(=O)N[C@@H](C)c3ccc(-c4scnc4C)cc3)C(C)C)on2)cnc1N1CCC(c2cc3cc(-c4ccccc4O)nnc3s2)CC1 (single isomer, unassigned) [Compound 2] | A (“A” indicates maximum degradation ≥75%) | > 10 nM | < 50% | > 1000 nM
12 | Cc1ncsc1-c1ccc([C@H](C)NC(=O)[C@@H]2C[C@@H](O)CN2C(=O)[C@@H](c2cc(-c3cnc(N4CC5(CC(c6sc7nnc(-c8ccccc8O)cc7c6C)C5)C4)nc3)no2)C(C)C)cc1 [Compound 46, (2S,4R)-4-hydroxy-1-((R)-2-(3-(2-(6-(3-(2-hydroxyphenyl)-5-methylthieno[2,3-c]pyridazin-6-yl)-2-azaspiro[3.3]heptan-2-yl)pyrimidin-5-yl)isoxazol-5-yl)-3-methylbutanoyl)-N-((S)-1-(4-(4-methylthiazol-5-yl)phenyl)ethyl)pyrrolidine-2-carboxamide] | A (“A” indicates maximum degradation ≥75%) | < 10 nM | < 50% | > 1000 nM
13 | Cc1ncsc1-c1ccc([C@H](C)NC(=O)[C@@H]2C[C@@H](O)CN2C(=O)[C@@H](c2cc(-c3ccc(N4CCC(c5sc6nnc(-c7ccccc7O)cc6c5C)CC4)cc3)no2)C(C)C)cc1 [Compound 26, (2S,4R)-4-hydroxy-1-((R)-2-(3-(4-(4-(3-(2-hydroxyphenyl)-5-methylthieno[2,3-c]pyridazin-6-yl)piperidin-1-yl)phenyl)isoxazol-5-yl)-3-methylbutanoyl)-N-((S)-1-(4-(4-methylthiazol-5-yl)phenyl)ethyl)pyrrolidine-2-carboxamide] | A (“A” indicates maximum degradation ≥75%) | < 10 nM | < 50% | > 1000 nM
